Experimental data reported in PubChem BioAssay AID1996.
Values after ≈ are worked out from the molar mass of the structure shown.

Conditions: buffer; pH 7.4; 200.0 µM

Row | SMILES | solubility kinetic
1 | COc1cccc2cc(C(=O)NCc3ccc(F)cc3)c(=N)oc12 | 1.7 µg/mL (≈ 5.21 µM)
2 | Clc1nnc(Cl)c2c1ncn2Cc1ccccc1 | > 41.9 µg/mL
3 | O=C(CSc1nnc(-c2ccco2)o1)Nc1ccccc1Cl | > 50.4 µg/mL
4 | Cc1c(-c2ccc(Cl)cc2)[n+](=O)c(-c2ccccc2)cn1[O-] | > 46.9 µg/mL
5 | O=C(COC(=O)c1ccc(Cl)nc1)Nc1ccccc1OC(F)F | > 53.5 µg/mL
6 | Cl.NS(=O)(=O)c1ccc(CCNCC#Cc2ccccc2)cc1 | > 52.6 µg/mL
7 | Cc1ccc(S(=O)(=O)NCCC(=O)NCCc2ccc(S(N)(=O)=O)cc2)cc1C | > 65.9 µg/mL
8 | Nc1nc(-c2ccccc2)c(-c2ccccc2)o1 | > 35.4 µg/mL
9 | NC(=O)COC(=O)c1cc([N+](=O)[O-])ccc1NCCO | > 42.5 µg/mL
10 | COc1cscc1C(N)=O | 19.4 µg/mL (≈ 123 µM)
11 | CCc1ccc2oc(C(=O)Nc3nonc3CC)c(C)c2c1 | < 0.2 µg/mL
12 | CC(=O)Nc1cccc(NC(=O)Nc2cccc3ccccc23)c1 | 0.8 µg/mL (≈ 2.5 µM)
13 | Cc1cccc(C)c1-n1c(=O)n(Cc2ccccc2)c(=O)c2[nH]cnc21 | 20.4 µg/mL (≈ 58.9 µM)
14 | CSc1ccc(S(=O)(=O)NC2CC2)cc1 | > 36.5 µg/mL
15 | O=C(CNC(=O)c1ccco1)NCc1ccc2c(c1)OCO2 | 34.6 µg/mL (≈ 114 µM)
16 | CCOc1ccc(CCNC(=O)c2ccc(=O)[nH]c2)cc1OCC | > 49.6 µg/mL
17 | COc1ccc(C(=O)OCC(=O)c2ccc3c(c2)NC(=O)CO3)cc1[N+](=O)[O-] | 2.7 µg/mL (≈ 6.99 µM)
18 | CCc1cccc2c(=O)c(C(=O)NCCCOC)c[nH]c12 | > 43.3 µg/mL
19 | COc1ccc(C(=O)O/N=C(/C(N)=O)P(=O)(OC(C)C)OC(C)C)cc1 | 49.1 µg/mL (≈ 127 µM)
20 | Cl.OCCCNCc1ccc(-c2ccccc2)cc1 | > 41.7 µg/mL
21 | O=[N+]([O-])c1ccc(NCc2ccncc2)cc1 | > 34.4 µg/mL
22 | Nc1ccc(Oc2ncccn2)c(Cl)c1 | > 33.2 µg/mL
23 | C=CCNc1nc(C(=O)OCC(=O)c2ccccc2)cs1 | 4.5 µg/mL (≈ 14.9 µM)
24 | COc1ccc(C(=O)Nc2ccc(Nc3ccccc3)cc2)cc1OC | < 0.4 µg/mL
25 | COc1ccc(NC(=O)CCN2C(=O)c3ccccc3C2=O)cc1 | 23.1 µg/mL (≈ 71.2 µM)
26 | CC(C)[C@H](NC(=O)c1cccc(CN(Cc2ccccc2)C(=O)/C=C/c2ccccc2)c1)C(=O)O | 69 µg/mL (≈ 147 µM)

Row | SMILES | solubility kinetic
27 | Cc1c(NS(C)(=O)=O)cccc1-c1nc2cccnc2s1 | 42.9 µg/mL (≈ 134 µM)
28 | COc1ccc(C2C(C(C)=O)=C(C)Nc3ncnn32)c(OC)c1OC (centres undefined) | > 51.7 µg/mL
29 | O=S(=O)(Cc1noc(-c2ccc(OC(F)(F)F)cc2)n1)c1ccc(F)cc1 | < 0.4 µg/mL
30 | CSc1ccc(/C=N/S(=O)(=O)c2ccccc2)cc1 | > 43.7 µg/mL
31 | O=C(Cc1ccccc1)NC(C(=O)O)C(O)c1ccc([N+](=O)[O-])cc1 (centres undefined) | > 51.6 µg/mL
32 | Cc1cnc(NCCc2ccccc2)s1 | 23 µg/mL (≈ 105 µM)
33 | O=C(O)C(c1ccccc1)N1C(=O)c2ccccc2C1=O (centres undefined) | 40.7 µg/mL (≈ 145 µM)
34 | OC1CCNC(=S)N1c1ccccc1 (centres undefined) | 30.7 µg/mL (≈ 147 µM)
35 | CC(C)c1ccc(N)c(S(=O)(=O)O)c1 | > 32.3 µg/mL
36 | CC(NC(=O)COC(=O)CN1C(=O)c2ccccc2C1=O)c1ccccc1 (centres undefined) | > 55 µg/mL
37 | CC(=O)Oc1ccc2c(=O)c(-c3nc4ccccc4s3)coc2c1 | 1 µg/mL (≈ 2.96 µM)
38 | COc1ccc(CC(=O)Nc2cccc3ncccc23)cc1OC | > 48.4 µg/mL
39 | NC(=O)c1cccnc1OCC(F)(F)F | > 33 µg/mL
40 | N#C/C(=C\c1cccnc1)c1nc2ccccc2[nH]1 | 27.4 µg/mL (≈ 111 µM)
41 | CC(C)=CC(=O)OCC(=O)Nc1ccc(Cl)cc1 | 36.3 µg/mL (≈ 136 µM)
42 | CS/C(=C\C(=O)c1ccco1)Nc1ccccc1Cl | 10.4 µg/mL (≈ 35.4 µM)
43 | CC(=O)c1ccc(OCC(C)Oc2ccc(C#N)cc2)cc1 (centres undefined) | 23.3 µg/mL (≈ 78.9 µM)
44 | CN(C)/C(=N\S(=O)(=O)c1ccc(F)cc1)c1ccccc1 | > 46 µg/mL
45 | Cc1cc(Cl)c(OCCOCCN2CCNCC2)c(Cl)c1.O=C(O)C(=O)O | 62.5 µg/mL
46 | COc1ccc(-c2noc(-c3ccoc3C)n2)cc1OC | 0.8 µg/mL (≈ 2.79 µM)
47 | Cc1cccn2cc(-c3cc4ccccc4oc3=O)nc12 | 0.6 µg/mL (≈ 2.17 µM)
48 | COc1ccccc1NC(=O)Nc1ccncc1 | 16.5 µg/mL (≈ 67.8 µM)
49 | CC(C)(C)NC(=O)CSCc1ccc(Br)cc1 | > 47.4 µg/mL
50 | c1ccc2c(c1)CCc1ccccc1C2=C1CCNCC1 | 30.7 µg/mL (≈ 111 µM)
51 | CC(NC(=O)COC(=O)Cn1cc(C(F)(F)F)ccc1=O)c1ccccc1 (centres undefined) | > 57.3 µg/mL
52 | CC1CC=C(c2ccccc2)C(=S)N1 (centres undefined) | > 30.5 µg/mL

The remaining lines, values ahead:

Row | solubility kinetic | SMILES
53 | > 36.6 µg/mL | O=C(NC1CC(=O)N(c2ccccc2)C1)C1CC1 (centres undefined)
54 | 10.7 µg/mL (≈ 34.6 µM) | Cc1cccc(OCCCN2C(=O)C(=O)c3cc(C)ccc32)c1
55 | > 41.9 µg/mL | CCOc1ccc(C(=S)N2CCCC2)c(OCC)c1
56 | 6.6 µg/mL (≈ 32.8 µM) | CCOc1nc2ccccc2cc1C=O
57 | < 0.5 µg/mL | CC(=O)c1sc(-c2ccc(Cl)cc2)nc1C
58 | 2.6 µg/mL (≈ 7.92 µM) | CCOC(=O)Cc1ccc(NC(=O)c2cccc([N+](=O)[O-])c2)cc1
59 | 6.3 µg/mL (≈ 14.4 µM) | NS(=O)(=O)c1ccc(NC(=O)c2ccc(S(=O)(=O)N3CCCCCC3)cc2)cc1
60 | 43.4 µg/mL (≈ 131 µM) | COCC1CCCN(Cc2nc(-c3ccc4c(c3)OCO4)no2)C1 (centres undefined)
61 | 1.1 µg/mL (≈ 3.58 µM) | CC(C)(C)N(Cc1ccccc1)C(=O)c1cc2ccccc2o1
62 | 3.9 µg/mL (≈ 12.2 µM) | CSc1ncccc1C(=O)OCC(=O)c1cc(C)n(C)c1C
63 | 1.7 µg/mL (≈ 4.65 µM) | O=C(Nc1ccccc1)N1CCCN(c2nccc(C(F)(F)F)n2)CC1
64 | > 55.9 µg/mL | CCCCn1c(SCC(=O)Nc2cc(C)on2)nnc1-c1ccncc1
65 | > 43.4 µg/mL | Cn1c(SCC(=O)N2CCCC2=O)nc2ccccc21
66 | > 46.4 µg/mL | CC(=O)N1CCN(C(=O)CNC(=O)c2ccc(C)s2)CC1
67 | 37.8 µg/mL (≈ 117 µM) | CC(NC(=O)C1c2ccccc2Oc2ccccc21)C1CCCO1 (centres undefined)
68 | 0.5 µg/mL (≈ 1.49 µM) | COc1ccc(CCNC(=O)C(=O)c2c(C)[nH]c3ccccc23)cc1
69 | > 43.5 µg/mL | Cl.O=S(=O)(CCC1CCCCN1)c1ccccc1 (centres undefined)
70 | > 76.1 µg/mL | CCN1CCN(C(=O)C(Cc2ccccc2)NC(=O)c2ccc(Cl)c(S(=O)(=O)N(C)C)c2)CC1 (centres undefined)
71 | 14.4 µg/mL (≈ 33.5 µM) | COC(=O)CN(c1nc(C)c(Br)c(OC)n1)S(=O)(=O)c1ccccc1
72 | 8.5 µg/mL (≈ 31.8 µM) | Cc1cccc(NC(=O)C(C)C(=O)c2ccccc2)c1 (centres undefined)
73 | 3.2 µg/mL (≈ 9.37 µM) | Cc1cccc(N2CCN(C(=O)NCc3ccc(F)cc3)CC2)c1C
74 | 3.1 µg/mL (≈ 10.1 µM) | COc1ccc2oc(=N)c(C(=O)NCc3ccccc3)cc2c1
75 | 11 µg/mL (≈ 36 µM) | COc1ccc(C(N)=O)c(OCC(=O)Nc2cc(C)on2)c1

Row | solubility kinetic | SMILES
76 | 2.3 µg/mL (≈ 7.22 µM) | Cc1cccc(C(=O)O/N=C(\N)Cc2cccc3ccccc23)c1
77 | 33.3 µg/mL (≈ 133 µM) | O=[N+]([O-])c1cc(CN2CCCCCC2)ccc1O
78 | > 46.3 µg/mL | O=C(/C=C/c1cccc(Cl)c1)NCCCN1CCOCC1
79 | 1.1 µg/mL (≈ 3.19 µM) | Cc1cc(C)cc(NC(=O)CNC(c2ccccc2)c2ccccc2)c1
80 | 36.6 µg/mL (≈ 98.8 µM) | CC(C)CN(C(=O)C1CCC1)c1c(N)n(Cc2ccccc2)c(=O)[nH]c1=O
81 | 2.3 µg/mL (≈ 7.48 µM) | Cc1cc(C)c2oc(C(=O)NCc3ccccc3)cc(=O)c2c1
82 | > 37 µg/mL | Clc1ccc(-c2cnc3n2CCCCC3)cc1
83 | > 47.9 µg/mL | Cc1cccc(C(=O)O)c1NC(=O)Cc1cccc2ccccc12
84 | 26 µg/mL (≈ 105 µM) | CCN(C(=O)N1CCOCC1)c1ccccc1C
85 | 1.3 µg/mL (≈ 3.73 µM) | CCC1CN(C(=O)NCc2ccc(F)cc2)c2cc(Cl)ccc2O1 (centres undefined)
86 | < 0.4 µg/mL | CCc1cc(C(=O)c2ccc(OC)cc2)c(NC(=O)CN2CCCCC2)s1
87 | > 45.1 µg/mL | CN(Cc1nc2ccccc2s1)C(=O)c1ccc(F)cc1
88 | > 49 µg/mL | CCCn1c(SCC(=O)Nc2ccc(Cl)cc2)n[nH]c1=O
89 | 5.3 µg/mL (≈ 10.7 µM) | O=C(CCNC(=O)c1ccc(Br)cc1)Nc1ccc(S(=O)(=O)N2CCOCC2)cc1
90 | > 47.8 µg/mL | CN1CCC(N(CCc2ccccc2)C(=O)CCC(=O)O)CC1
91 | 40 µg/mL (≈ 136 µM) | CCOC(=O)C1CCCN(Cc2nc(CC3CC3)no2)C1 (centres undefined)
92 | 28.2 µg/mL (≈ 85.8 µM) | Cc1cccc(-n2c(C)cc(C(=S)N3CCOCC3)c2C)c1C
93 | 38.5 µg/mL (≈ 118 µM) | CCS(=O)(=O)N1CCC(C(=O)Oc2ccc(C)c(C)c2)CC1
94 | > 46.7 µg/mL | COc1ccc(C)cc1S(=O)(=O)n1c([N+](=O)[O-])cnc1C
95 | 39.8 µg/mL (≈ 121 µM) | COc1ccccc1OCc1ccc(C(=O)NC2CCCCC2)o1
96 | > 63.9 µg/mL | Cl.O=C(NCCN1CCOCC1)c1ccc(S(=O)(=O)Nc2ccccc2)cc1
97 | > 49.1 µg/mL | CCOC(=O)N1CCN(C(=O)Nc2cccc3ccccc23)CC1
98 | > 49.7 µg/mL | Cc1cccc(C(=O)NCC(=O)OCC(=O)c2ccc(C)s2)c1

Row | solubility kinetic | SMILES
99 | > 33 µg/mL | CC1CCC(NC(=O)c2cccn2C)CC1 (centres undefined)
100 | 26.6 µg/mL (≈ 110 µM) | OC1CCN(Cc2ccc3ccccc3c2)CC1
101 | > 44 µg/mL | COc1ccc(OC)c(NC(=O)COC(=O)C2CCC2)c1
102 | > 45.3 µg/mL | Cc1ccc(OCC(O)CN2CCOCC2)c(C)c1.Cl (centres undefined)
103 | > 42.2 µg/mL | CC1CCCC(C)N1C(=O)COC(=O)c1cccs1 (centres undefined)
104 | 7.6 µg/mL (≈ 31.4 µM) | Cc1ccc2[nH]c(C(=O)N3CCCCC3)cc2c1
105 | 1 µg/mL (≈ 3.44 µM) | COc1cccc(NC(=O)NCc2ccccc2Cl)c1
106 | > 49.7 µg/mL | CCn1c(SCC(=O)NC2CCCC2)nnc1-c1cccnc1
107 | > 50.6 µg/mL | CN(CC(=O)NC1CC1)S(=O)(=O)c1cc(Cl)ccc1Cl
108 | 5.1 µg/mL (≈ 17.7 µM) | CC(=O)c1ccc(NC(=O)NC2CCCCCCC2)cc1
109 | 42.7 µg/mL (≈ 142 µM) | O=C(c1ccco1)N1CCN(CCOc2ccccc2)CC1
110 | 7.8 µg/mL (≈ 16.9 µM) | COc1ccc(CNC(=O)COC(=O)c2ccc(C)c(S(=O)(=O)N3CCOCC3)c2)cc1
111 | > 46.1 µg/mL | O=C(Cc1ccccc1)c1ccccc1C(=O)N1CCCCC1
112 | > 65.9 µg/mL | Cc1ccc(NC(=O)COC(=O)CNC(=O)C2CCCCC2)cc1S(=O)(=O)N(C)C
113 | 8 µg/mL (≈ 31.7 µM) | CCn1c2ccccc2c2cc(CC(N)=O)ccc21
114 | 2 µg/mL (≈ 7.61 µM) | O=C(c1cc2cc(Cl)ccc2[nH]1)N1CCCCC1
115 | 6.9 µg/mL (≈ 21.3 µM) | Cc1cc2cc(CNC(=O)Cc3ccc([N+](=O)[O-])cc3)ccc2[nH]1
116 | 16.6 µg/mL (≈ 43.4 µM) | CCOc1ccc(C(=O)CCC(=O)N2CCN(c3ccc(O)cc3)CC2)cc1
117 | > 44.3 µg/mL | CC(=O)c1ccc(N2C(=O)C3C4C=CC(CC4)C3C2=O)cc1 (centres undefined)
118 | 11.3 µg/mL (≈ 24.2 µM) | COc1ccc(S(=O)(=O)N2CCOCC2)cc1NC(=O)COC(=O)CC1CC2CCC1C2 (centres undefined)
119 | > 47.8 µg/mL | CC(C)(C)CC(=O)N1CCN(Cc2ccc3c(c2)OCO3)CC1
